Results on four molecules are retold here after patent US9487561B2, “Biologically active complex and its preparation” (HAMLET PHARMA AB, priority 2010, dated 2016).

What all share (format): cell-based, human
Assay [1] relates to A549 lung carcinoma cells. In words: cell death assay (trypan blue exclusion, ATP levels). To be noted: for effect of channel inhibitor on HAMLET-induced cell death: 30 minutes pretreatment, HAMLET three hours; for tumoricidal effect (trypan blue exclusion, ATP): Example 2, 3 hours, molar concentrations based on stoichiometry in HAMLET, dose response. The protocol: Cells were detached from cell culture flasks with versen (0.2 g EDTA in 200 ml H2O and 800 ml PBS), washed with PBS and resuspended in serum-free RPMI-1640. HAMLET dissolved in PBS was incubated with cells (0.5×10^6/ml for A549, A498 and HeLa cells; 1×10^6/ml for Jurkat) at 37° C. FCS was added after 1 hour. Cell death was quantified by trypan blue exclusion (Chroma Gesellschaft Schmid & Co) or by measuring ATP levels (ATPlite Kit, PerkinElmer, Infinite 200, Tecan). Light images were captured using the HOLOMONITOR™ M2 digital holographic microscope (Phase Holographic Imaging AB, Lund, Sweden).
For studies with inhibitors, cells were pretreated for 30 minutes. Inhibitors used were Gadolinium chloride (GdCl3, 100 μM), Barium chloride (BaCl2, 1 mM), Ruthenium red (30 μM), tetrandrine (10 μM) and amiloride (1 mM), all from Sigma Aldrich. For p38 inhibition, SB202190 (20 μM, Sigma Aldrich) or BIRB796 (10 μM, Axon Medchem) dissolved in DMSO was used. The wells were washed twice with PBS and new medium with inhibitor was added. For RNA interference, FlexiTube siRNA Premixes against MAPK11 (SI00606053), MAPK14 (SI00300769) and All Star Negative Control siRNA (SI03650318) from Qiagen was used. A549 forward was transfected using 25 nM final siRNA concentration in 24-well plate. After 48 hours, knockdown was examined by Western blot (anti-p38, 1:1000, Cell Signaling) and RT-PCR (MAPK14, QT00079345, QIAGEN).
To examine if functional ion channels are important for the tumoricidal activity of HAMLET, A549 lung carcinoma cells in suspension were pretreated with the channel inhibitors for 30 minutes and exposed to increasing concentrations of HAMLET for three hours.
A549 cells were seeded to a density of 0.8-1.0×10^6 cells/well in RPMI without FCS. Different volumes of HAMLET/oleate and oleic acid solutions were added. The cells were incubated for 1 hour at 37° C. 5% CO2 for 1 hour before 50 μl of FCS (5% final concentration) were added to the wells. The cells were then further incubated for additional 2 hours before the viability were determined by trypan blue exclusion and ATP measurements.

Assay [2] deals with eIF2α, ATF6, XBP1, CHOP in A549 tumor cells. The assay is described as follows: ER stress response (Western blot, XBP1 splicing PCR, RT-PCR). Conditions: for effect of ion channel inhibitor on HAMLET-induced eIF2α phosphorylation (ER stress): lung carcinoma cells, 30 minutes pretreatment, HAMLET 21 and 35 μM, 1 hour; for XBP1 splicing: PCR. The protocol: (§1) RNA was prepared with the RNeasy Mini Kit (QIAGEN, Hilden, Germany) and treated with DNAse I (QIAGEN). cDNA was synthesized using the Superscript III first strand RT-PCR system (Invitrogen). PCR of spliced and un-spliced XBP1 was as described (Yoshida et al., 2001, Cell 107: 881-891). Real-time PCR was performed on a Rotorgene 2000 instrument (Corbett Life Science, Sydney, Australia) using TaqMan Gene Expression Assays (Applied BioSystems) CHOP/DDIT3 (Hs01090850), IL6 (Hs00985639), IL8 (Hs00174103) and TNFα (Hs00174128). GAPDH (Hs99999905_m1) was used for normalization.
(§2) Equal volumes of lysates were separated by SDS-PAGE on 4-12% Bis-Tris gels (Invitrogen) and blotted onto PVDF membranes. For other Western blots, 200,000 cells were allowed to adhere overnight in a 6-well plate. After HAMLET treatment the cells were washed with PBS and lysed in M-PER lysis buffer (Pierce) containing Complete protease inhibitor cocktail and PhosSTOP phosphatase inhibitor cocktail (both from Roche). The detached cells were collected by centrifugation. The lysates were cleared by centrifugation and protein concentrations were measured using the DC Protein Assay (Bio-Rad Laboratories, Hercules, Calif.). Equal amounts of protein were separated by SDS-PAGE on 4-12% Bis-Tris gels (Invitrogen) and blotted onto PVDF membranes (GE Healthcare). Membranes were saturated with BSA (GAPDH) or nonfat dry milk (phospho-p38, p38, phospho-ERK1/2, ERK1/2) and incubated with anti-p38, anti-phospho-p38, anti-ERK1/2, anti-phospho-(Thr202/Tyr204)-p44/42 (all 1:500-1000, Cell Signaling Technology), anti-ATF6 (1:1000, IMG-273, Imgenex), anti-phospho-eIF2α (Ser51), (1:500, Cell Signaling Technology) or anti-GAPDH (1:3000-5000, Novus Biologicals) antibodies followed by horseradish peroxidase-conjugated anti-rabbit (1:1000, DakoCytomation, Glostrup, Denmark) or anti-mouse (1:40000-50000, Novus Biologicals) antibodies for staining. Bound antibodies were detected with ECL Plus Western Blotting Reagent (GE Healthcare, Little Chalfont, UK) and GelDoc equipment (Bio-Rad Laboratories, Hercules, Calif.). If required, membranes were stripped with Restore Western Blot Stripping Buffer (Pierce, Rockford, Ill.), blocked and reprobed with new antibodies. MAP kinase phosphorylation was analyzed on a Human Phospho-MAPK array (Proteome Profiler Array, R&D Systems) as per the manufacturer's instruction. Band and spot intensities were quantified using ImageJ (Abramoff et al., July 2004, Biophotonics International). Cytokine quantification (IL6, IL8, TNFα) was performed on an […] 1000 immunoassay system (Siemens Diagnostics).
Disturbances in ER Ca^2+ regulation can impair protein folding in the ER by inactivation of Ca^2+ dependent chaperones, such as GRP78 and calreticulin. An increase in unfolded proteins may activate a conserved series of signal-transduction events. Spanning the ER membrane, three ER stress sensors PERK, ATF6 and IRE1 are activated by an overload of unfolded proteins. Upon PERK activation, eIF2α is phosphorylated, shutting down protein translation to avoid unfolded protein overload. To examine if HAMLET disturbs the ER and triggers an unfolded protein response, we analyzed the transcription of ER stress-induced genes.
On the technique in general: In western blotting, separated proteins are transferred to a membrane and probed.

Assay [3] relates to IL-6, IL-8, TNFα in healthy, differentiated cells. In words: innate immune response (qRT-PCR, cytokine quantification). The procedure:
as §1, §2
To examine the molecular basis of the difference in HAMLET susceptibility between carcinoma cells and healthy, differentiated cells, transcriptional profiles were compared.
To further examine if the innate immune response in healthy, differentiated cells requires functional ion channels, the expression of IL-6, IL-8 and TNFα mRNA was quantified in cells pretreated with amiloride and BaCl2, using qRT-PCR.
For orientation: Quantitative PCR measures a nucleic acid by following its amplification.

“Also recorded” adds a separate entry of the source.

On to `NC(N)=NC(=O)c1nc(Cl)c(N)nc1N` [amiloride, 3,5-diamino-6-chloro-N-(diaminomethylene)pyrazine-2-carboxamide], for which the “effect of channel inhibitor on HAMLET-induced cell death” value in assay [1] is “markedly reduced cell death”. Also, in assay [2], the “effect of ion channel inhibitor on HAMLET-induced eIF2α phosphorylation (ER stress)” value is “reduced eIF2α phosphorylation”. For the same molecule, the “effect of inhibitor on HAMLET-induced IL-6 mRNA” value in assay [3] is on record as “abolished”.
In the case of `CCCCCCCC/C=C\CCCCCCCC(=O)[O-].[Na+]` [oleate, sodium oleate], in assay [1], the “tumoricidal effect (trypan blue exclusion, ATP)” value was “tumoricidal; also recorded: stronger than that of oleic acid”. In addition, in assay [1] (Example 2, dose response), the “concentration at which tumor cells were killed, relative to concentration in HAMLET” value is “three to five times higher than the concentration in HAMLET”. For the same molecule, the “tumoricidal effect at concentrations corresponding to 15× that of HAMLET (35 μM)” value in assay [1] (FIG. 7F, cell line not stated) is recorded as “not tumoricidal”. For the same molecule, the XBP1 splicing entry in assay [2] is on record as “caused splicing of XBP1”.
As for `[Ba+2].[Cl-].[Cl-]` [BaCl2, barium chloride], the “effect of channel inhibitor on HAMLET-induced cell death” value in assay [1] is listed as “markedly reduced cell death”. Further, the “effect of ion channel inhibitor on HAMLET-induced eIF2α phosphorylation (ER stress)” value in assay [2] is “reduced eIF2α phosphorylation”. In assay [3], the “effect of inhibitor on HAMLET induced TNFα expression” value is on record as “caused a reduction”; the “effect of inhibitor on IL-6 and IL-8 response to HAMLET” value is “did not inhibit”.

B1: HAMLET (protein, UniProt P00709 20-142, looked up)
Alpha-lactalbumin: KQFTKCELSQLLKDIDGYGGIALPELICTMFHTSGYDTQAIVENNESTEYGLFQISNKLWCKSSQVPQSRNICDISCDKFLDDDITDDIMCAKKILDIKGIDYWLAHKALCTEKLEQWLCEKL
modifications: oleic acid complex
Take B1: the “tumoricidal effect (trypan blue exclusion, ATP)” value in assay [1] is “kills tumor cells more efficiently than protein free oleate or oleic acid”. Also, the “lethal response (trypan blue exclusion, ATP levels)” value in assay [1] (increasing concentrations, three hours, no inhibitors) is given as “rapid, dose-dependent lethal response”. Further, the “increase of CHOP mRNA” value in assay [2] (3 hours) is on record as 30 fold. For the same molecule, the eIF2α phosphorylation entry in assay [2] (A549 tumor cells) is “time- (30 minutes) and dose-dependent”. Also, the XBP1 splicing entry in assay [2] is “detected”. For the same molecule, in assay [2] (three hours of HAMLET treatment), the “ATF6 (Western blotting)” value was “increase in cleaved as well as full-length ATF6”. In addition, the “secreted protein levels of IL-6, IL-8, and TNFα” value in assay [3] was “clear increase in secreted protein levels”. In addition, the “increase in IL-6 mRNA” value in assay [3] (HAMLET 21 μM, 1 hour, qRT-PCR) came to 30 fold.
